Experimental data: paper PMC6602202, “Enteroendocrine peptides regulate feeding behavior via controlling intestinal contraction of the silkworm Bombyx mori” (PLoS ONE, 2019)

Key:
BNGR-A16 [1] = details: cited from earlier work
intestinal contractions = details: cited from earlier work
Description: The myoinhibitory activities of AT and GSRYa-1 and -2 in the foregut (pharynx and esophagus) and hindgut (ileum) (Figs 5E, 5F and 6E) seem to be linked to the delay in feeding initiation in B. mori larvae (Figs 1D and 6B).

pharynx = assay: Spontaneous contraction of the pharynx in dissected open larvae; design: species or system Bombyx mori; details: 10^−9–10^−5 M, 27°C, n = 5
Procedure: The opened head and abdominal portion of 2-day-old fifth-instar larvae (fed ad libitum and non-fed for 16 h) were washed twice with B. mori Ringer’s solution and incubated for 3 min at 27°C to stabilize the movement. After incubation, the contractile movements of the larval foregut and hindgut, particularly the spontaneous contraction of the pharynx and ileum (predominantly contracting area in hindgut) were observed and recorded using a digital microscope USB2.0 DigiScope II v2^TM (CHRONOS, Taipei, Taiwan). 100 μL of B. mori Ringer’s solution was added to the examined gut at 60 s after starting recording. Furthermore, 100 μL of B. mori Ringer’s solution (vehicle control) and 100 μL peptide-containing solution (10^−9–10^−5 M of peptides dissolved in B. mori Ringer’s solution) were exposed over gut at 120 s after a recording start. The contractile movements were analyzed using ImageJ software (https://imagej.net/Fiji) with the Optic flow plug-in (Gaussian window MSE). […] The position of the lines used for the kymograph analyses (x-y, z-w) were determined by Optic flow analyses. The waveform of the kymographs, corresponding to the visible contractions in the recorded movies, were quantified and converted to myograms. […] Invisible contractions in the recorded movie and extremely small amplitudes in the myograms were considered as no significant contractions. […]

B. mori larvae = assay: Feeding behavioral assay (latency to first bite), 2-day-old fifth-instar larvae; type: in vivo, Bombyx mori; details: 100 μL injected dorsolaterally into the hemolymph, after 16 h diet deprivation, n = 3
Procedure: A part of the eluents of the fractions from RP-HPLC as well as synthetic peptide solutions was evaporated to dryness and dissolved in 100 μL distilled water just prior to the bioassay. The feeding cycles of 2-day-old fifth-instar B. mori larvae were synchronized by diet deprivation for 16 h. After diet deprivation, the larvae were anesthetized by submerging in icy water for 15 min. Then, 100 μL sample was injected dorsolaterally into the hemolymph. After injection, the larvae were placed in front of artificial diet blocks, and then the latency to their first bites as the initiation of feeding (first bite) after sample-injection was measured as reported previously. Statistical analysis was performed using a one-way analysis of variance (one-way ANOVA), then a post hoc Dunnett’s test. Reproducibility was confirmed at least twice by assays using different populations of larvae.

BNGR-A16 [2] = assay: aequorin-based bioluminescent calcium assay, CHO cells expressing BNGR-A16; type: cell-based, Bombyx mori; details: aequorin luminescence 20 s, triplicates, three experiments
Procedure: Activity of the BNGR-A5 and -16 receptors were analyzed using Chinese hamster ovary (CHO) cells transiently transfected with plasmids for expression of each BNGR, calcium-sensitive reporter aequorin and chimeric G protein that couple with receptor activation to an intracellular Ca^2+-increase independent of the endogenous receptor signaling cascade. The entire open reading frames of BNGR-A5 and -16 were cloned into pcDNA3.1(+) vector (Invitrogen) with a Kozak translation initiation sequence incorporated at 5´end. Plasmids for codon optimized aequorin and chimeric G proteins were used as described previously. […]
The transfected cells were detached using PBS supplemented with 0.2% EDTA and rinsed of the culture plates with the assay medium—phenol red free DMEM/F12 with L-glutamine and 15 mM HEPES (PAN Biotech, Wimborne, Dorset, UK), 0.1% BSA (Sigma-Aldrich Co. LLC.) and 1% penicillin/streptomycin (Life Technologies). […] Emitted luminescence signal corresponding to the ligand-induced intracellular Ca^2+ release was recorded for 20 s using the GloMax-Multi+ Detection System (Promega). […]

For allatotropin, the AT receptor assignment (BNGR-A16 [1]) is listed as “the AT receptor is assigned to be BNGR-A16”, the “effect on intestinal contractions, other Lepidopteran species” value (intestinal contractions) is listed as “stimulatory effect” and the “relative frequency of contraction, pharynx, fed ad libitum” value (pharynx; larvae fed ad libitum, 60–120 s vs 120–180 s) is listed as “decreased relative frequency of contraction”. For the same substance, the “relative frequency of contraction, pharynx, non-fed” value (pharynx; larvae non-fed for 16 h) was “decreased the frequency”, the “effect on latency to the first bite, synthetic peptides” value (B. mori larvae; significant by one-way ANOVA (P < 0.01)) was “prolonged the latency to the first bite in a dose-dependent manner” and the “ED50, prolongation of the latency to the first bite” value (B. mori larvae; synthetic peptides) was 1000 nM. The “response, BNGR-A16” value (BNGR-A16 [2]) was “response of BNGR-A5 (Fig 3 an arrow) as well as BNGR-A16 to AT”.
